2 compounds from paper PMC4728128, “Two-subunit DNA escort mechanism and inactive subunit bypass in an ultra-fast ring ATPase” (eLife, 2015) can be followed below.

Each structure is given as a SMILES string.

In test [1] the target is T1, SpoIIIE (Bacillus subtilis, UniProt P21458).
T1 construct: N-terminal biotin tag (PinPoint Xa-1) fused to SpoIIIE from plasmid pJB103 (Bath et al. 2000); recombinant, purified; homo-hexamer
In words: optical tweezers rupture force of SpoIIIE-DNA tether (indirect sign of nucleotide binding). Particulars: 1 mM ADP, no ATP; dsDNA.

Test [2] deals with T1, SpoIIIE. The experiment in a line: single-molecule optical tweezers DNA translocation. It is filed as biochemical. Particulars: dsDNA, 50 mM Tris-HCl pH 7.5, 10 mM MgCl2.

T1 sequence (P21458 175-787): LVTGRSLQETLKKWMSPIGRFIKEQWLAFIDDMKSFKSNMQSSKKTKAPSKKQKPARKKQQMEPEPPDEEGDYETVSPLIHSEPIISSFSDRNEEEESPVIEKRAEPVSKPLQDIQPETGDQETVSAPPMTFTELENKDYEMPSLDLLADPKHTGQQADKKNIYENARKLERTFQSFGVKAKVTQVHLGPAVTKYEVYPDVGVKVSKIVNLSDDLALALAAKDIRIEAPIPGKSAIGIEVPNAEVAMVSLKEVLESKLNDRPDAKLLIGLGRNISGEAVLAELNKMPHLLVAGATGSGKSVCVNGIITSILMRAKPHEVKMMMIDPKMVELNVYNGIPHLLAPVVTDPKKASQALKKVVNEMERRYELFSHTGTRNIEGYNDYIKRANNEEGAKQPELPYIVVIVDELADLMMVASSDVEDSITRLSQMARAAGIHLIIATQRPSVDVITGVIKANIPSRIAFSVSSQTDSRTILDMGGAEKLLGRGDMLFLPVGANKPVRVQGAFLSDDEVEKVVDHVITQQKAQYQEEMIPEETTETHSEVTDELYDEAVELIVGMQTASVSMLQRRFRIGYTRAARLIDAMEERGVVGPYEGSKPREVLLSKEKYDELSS

As for `Nc1ncnc2c1ncn2[C@@H]1O[C@H](COP(=O)(O)OP(=O)(O)O)[C@@H](O)[C@H]1O` [ADP], the “optical tweezers rupture force of SpoIIIE-DNA tether (indirect sign of nucleotid)” value in test [1] is listed as “In buffers containing only ADP or ATPγS, SpoIIIE could bind to DNA”.

The Km is the concentration of substrate that gives half-maximal velocity. Take `Nc1ncnc2c1ncn2[C@@H]1O[C@H](COP(=O)(O)OP(=O)(O)OP(=O)(O)O)[C@@H](O)[C@H]1O` [ATP]: the Km in test [2] is 505 ± 50 µM.
